Measurements reported in article PMC8490825 (Frontiers in Molecular Biosciences, 2021).
Where a SMILES comes first, the peptide text is derived from it. Bridges are numbered along the chain shown (N, C = ends).

Experiments:
hNaV1.1 = hNaV1.1 (Homo sapiens, UniProt P35498); test: cell-based; assay type: cell-based
hNaV1.7 = hNaV1.7 (Homo sapiens, UniProt Q15858); test: cell-based; assay type: cell-based
hNaV1.7, sequence (Q15858 whole entry, looked up): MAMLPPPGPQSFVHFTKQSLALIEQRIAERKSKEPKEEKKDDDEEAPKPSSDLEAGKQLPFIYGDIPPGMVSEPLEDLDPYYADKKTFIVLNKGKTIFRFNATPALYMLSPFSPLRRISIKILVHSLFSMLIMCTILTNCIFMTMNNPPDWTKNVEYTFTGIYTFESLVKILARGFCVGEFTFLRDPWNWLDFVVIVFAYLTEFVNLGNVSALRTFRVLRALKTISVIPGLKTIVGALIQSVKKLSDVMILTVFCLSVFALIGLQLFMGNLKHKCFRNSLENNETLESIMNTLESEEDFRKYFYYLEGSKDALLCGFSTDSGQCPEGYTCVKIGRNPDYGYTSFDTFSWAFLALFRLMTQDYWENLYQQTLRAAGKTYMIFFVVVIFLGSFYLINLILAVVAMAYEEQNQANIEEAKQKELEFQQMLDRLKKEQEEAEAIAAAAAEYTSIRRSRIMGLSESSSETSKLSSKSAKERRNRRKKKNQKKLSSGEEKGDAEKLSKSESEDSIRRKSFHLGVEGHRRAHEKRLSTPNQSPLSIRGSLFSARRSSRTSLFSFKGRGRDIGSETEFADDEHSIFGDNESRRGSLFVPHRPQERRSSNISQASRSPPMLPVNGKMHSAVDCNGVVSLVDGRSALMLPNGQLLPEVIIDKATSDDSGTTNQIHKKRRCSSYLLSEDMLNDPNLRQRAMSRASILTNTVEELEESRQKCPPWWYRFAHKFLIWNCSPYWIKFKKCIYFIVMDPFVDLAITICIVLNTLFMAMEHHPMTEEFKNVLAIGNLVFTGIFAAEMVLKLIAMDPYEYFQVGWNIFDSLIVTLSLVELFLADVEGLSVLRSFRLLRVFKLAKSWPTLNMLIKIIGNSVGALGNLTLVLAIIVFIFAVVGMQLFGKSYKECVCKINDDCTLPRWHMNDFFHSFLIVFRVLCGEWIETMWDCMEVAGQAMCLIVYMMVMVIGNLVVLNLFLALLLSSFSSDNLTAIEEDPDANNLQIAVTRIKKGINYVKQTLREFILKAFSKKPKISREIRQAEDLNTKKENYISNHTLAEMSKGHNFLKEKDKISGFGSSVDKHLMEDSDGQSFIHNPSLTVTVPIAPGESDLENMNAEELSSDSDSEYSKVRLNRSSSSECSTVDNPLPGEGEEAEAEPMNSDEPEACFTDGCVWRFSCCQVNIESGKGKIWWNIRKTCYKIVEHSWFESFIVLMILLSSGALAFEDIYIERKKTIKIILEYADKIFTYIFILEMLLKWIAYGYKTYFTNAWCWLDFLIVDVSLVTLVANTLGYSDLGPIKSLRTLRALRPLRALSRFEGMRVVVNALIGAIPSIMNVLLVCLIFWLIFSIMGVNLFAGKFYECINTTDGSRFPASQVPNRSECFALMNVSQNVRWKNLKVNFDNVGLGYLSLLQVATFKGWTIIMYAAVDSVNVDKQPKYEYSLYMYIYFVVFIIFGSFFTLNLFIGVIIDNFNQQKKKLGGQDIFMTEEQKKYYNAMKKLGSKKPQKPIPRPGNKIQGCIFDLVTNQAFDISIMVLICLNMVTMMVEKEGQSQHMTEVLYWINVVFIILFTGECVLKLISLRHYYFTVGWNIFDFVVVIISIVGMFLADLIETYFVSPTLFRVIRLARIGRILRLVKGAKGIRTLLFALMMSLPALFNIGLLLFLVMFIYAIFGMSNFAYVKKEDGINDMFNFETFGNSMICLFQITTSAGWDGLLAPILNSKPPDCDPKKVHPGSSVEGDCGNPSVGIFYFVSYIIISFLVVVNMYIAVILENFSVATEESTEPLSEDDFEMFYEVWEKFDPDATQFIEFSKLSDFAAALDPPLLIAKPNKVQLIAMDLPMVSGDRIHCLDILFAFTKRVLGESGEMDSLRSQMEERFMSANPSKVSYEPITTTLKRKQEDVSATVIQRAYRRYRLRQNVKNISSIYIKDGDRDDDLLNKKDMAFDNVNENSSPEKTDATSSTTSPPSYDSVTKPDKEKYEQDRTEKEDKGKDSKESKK

Structure (SMILES)	IC50 (hNaV1.1) [nM]	IC50 (hNaV1.7) [nM]	inhibition of NaV1.1, in words (hNaV1.1)	inhibition of NaV1.7, in words (hNaV1.7)
CSCC[C@@H]1NC(=O)CNC(=O)[C@H](CC(C)C)NC(=O)[C@@H](NC(=O)[C@H](CC(=O)O)NC(=O)[C@H](CC(=O)O)NC(=O)CN)CSSC[C@@H]2NC(=O)[C@@H]3CSSC[C@@H](C(=O)N[C@@H](CCCCN)C(=O)N[C@@H](Cc4ccc(O)cc4)C(=O)N[C@@H](CCC(N)=O)C(=O)N[C@@H](CC(C)C)C(=O)N[C@@H](Cc4c[nH]c5ccccc45)C(=O)O)NC(=O)[C@H](Cc4c[nH]c5ccccc45)NC(=O)[C@H](CCC(N)=O)NC(=O)[C@H](CC(=O)O)NC(=O)[C@H](CCCCN)NC(=O)[C@H](CCCNC(=N)N)NC(=O)[C@H](CO)NC(=O)[C@H](CSSC[C@H](NC(=O)[C@H](CO)NC(=O)[C@H](CO)NC(=O)[C@H](Cc4ccccc4)NC1=O)C(=O)N[C@@H](CC(=O)O)C(=O)N1CCC[C@H]1C(=O)N[C@@H](CC(N)=O)C(=O)N[C@@H](CC(N)=O)C(=O)N[C@@H](C)C(=O)N[C@@H](CCCCN)C(=O)N3)NC(=O)[C@H](CCCCN)NC(=O)[C@H](CCCNC(=N)N)NC(=O)[C@H](CC(N)=O)NC(=O)[C@@H]1CCCN1C2=O [Peptide D15A] (H-GDDCLGMFSSCDPNNAKCCPNRKCSRKDQWCKYQLW-OH; disulfide 4-19, 11-24, 18-31)	> 1000	> 1000	–	–
CSCC[C@@H]1NC(=O)CNC(=O)[C@H](CC(C)C)NC(=O)[C@@H](NC(=O)[C@H](CC(=O)O)NC(=O)[C@H](CC(=O)O)NC(=O)CN)CSSC[C@@H]2NC(=O)[C@@H]3CSSC[C@@H](C(=O)N[C@@H](CCCCN)C(=O)N[C@@H](Cc4ccc(O)cc4)C(=O)N[C@@H](CCC(N)=O)C(=O)N[C@@H](CC(C)C)C(=O)N[C@@H](Cc4c[nH]c5ccccc45)C(=O)O)NC(=O)[C@H](Cc4c[nH]c5ccccc45)NC(=O)[C@H](CCC(N)=O)NC(=O)[C@H](C)NC(=O)[C@H](CCCCN)NC(=O)[C@H](CCCNC(=N)N)NC(=O)[C@H](CO)NC(=O)[C@H](CSSC[C@H](NC(=O)[C@H](CO)NC(=O)[C@H](CO)NC(=O)[C@H](Cc4ccccc4)NC1=O)C(=O)N[C@@H](CC(=O)O)C(=O)N1CCC[C@H]1C(=O)N[C@@H](CC(N)=O)C(=O)N[C@@H](CC(N)=O)C(=O)N[C@@H](CC(=O)O)C(=O)N[C@@H](CCCCN)C(=O)N3)NC(=O)[C@H](CCCCN)NC(=O)[C@H](CCCNC(=N)N)NC(=O)[C@H](CC(N)=O)NC(=O)[C@@H]1CCCN1C2=O [Peptide D27A] (H-GDDCLGMFSSCDPNNDKCCPNRKCSRKAQWCKYQLW-OH; disulfide 4-19, 11-24, 18-31)	287	353	–	–
CSCC[C@@H]1NC(=O)CNC(=O)[C@H](CC(C)C)NC(=O)[C@@H](NC(=O)[C@H](CC(=O)O)NC(=O)[C@H](CC(=O)O)NC(=O)CN)CSSC[C@@H]2NC(=O)[C@@H]3CSSC[C@@H](C(=O)N[C@@H](CCCCN)C(=O)N[C@@H](Cc4ccc(O)cc4)C(=O)N[C@@H](CCC(N)=O)C(=O)N[C@@H](CC(C)C)C(=O)N[C@@H](Cc4c[nH]c5ccccc45)C(=O)O)NC(=O)[C@H](Cc4c[nH]c5ccccc45)NC(=O)[C@H](CCC(N)=O)NC(=O)[C@H](CC(=O)O)NC(=O)[C@H](CCCCN)NC(=O)[C@H](CCCNC(=N)N)NC(=O)[C@H](CO)NC(=O)[C@H](CSSC[C@H](NC(=O)[C@H](CO)NC(=O)[C@H](CO)NC(=O)[C@H](C)NC1=O)C(=O)N[C@@H](CC(=O)O)C(=O)N1CCC[C@H]1C(=O)N[C@@H](CC(N)=O)C(=O)N[C@@H](CC(N)=O)C(=O)N[C@@H](CC(=O)O)C(=O)N[C@@H](CCCCN)C(=O)N3)NC(=O)[C@H](CCCCN)NC(=O)[C@H](CCCNC(=N)N)NC(=O)[C@H](CC(N)=O)NC(=O)[C@@H]1CCCN1C2=O [Peptide F7A] (H-GDDCLGMASSCDPNNDKCCPNRKCSRKDQWCKYQLW-OH; disulfide 4-19, 11-24, 18-31)	> 1000	> 1000	completely lost its inhibition	completely lost its inhibition
CSCC[C@@H]1NC(=O)CNC(=O)[C@H](CC(C)C)NC(=O)[C@@H](NC(=O)[C@H](CC(=O)O)NC(=O)[C@H](CC(=O)O)NC(=O)CN)CSSC[C@@H]2NC(=O)[C@@H]3CSSC[C@@H](C(=O)N[C@@H](C)C(=O)N[C@@H](Cc4ccc(O)cc4)C(=O)N[C@@H](CCC(N)=O)C(=O)N[C@@H](CC(C)C)C(=O)N[C@@H](Cc4c[nH]c5ccccc45)C(=O)O)NC(=O)[C@H](Cc4c[nH]c5ccccc45)NC(=O)[C@H](CCC(N)=O)NC(=O)[C@H](CC(=O)O)NC(=O)[C@H](CCCCN)NC(=O)[C@H](CCCNC(=N)N)NC(=O)[C@H](CO)NC(=O)[C@H](CSSC[C@H](NC(=O)[C@H](CO)NC(=O)[C@H](CO)NC(=O)[C@H](Cc4ccccc4)NC1=O)C(=O)N[C@@H](CC(=O)O)C(=O)N1CCC[C@H]1C(=O)N[C@@H](CC(N)=O)C(=O)N[C@@H](CC(N)=O)C(=O)N[C@@H](CC(=O)O)C(=O)N[C@@H](CCCCN)C(=O)N3)NC(=O)[C@H](CCCCN)NC(=O)[C@H](CCCNC(=N)N)NC(=O)[C@H](CC(N)=O)NC(=O)[C@@H]1CCCN1C2=O [Peptide K31A] (H-GDDCLGMFSSCDPNNDKCCPNRKCSRKDQWCAYQLW-OH; disulfide 4-19, 11-24, 18-31)	> 1000	> 1000	loss of activity	loss of activity
CSCC[C@@H]1NC(=O)CNC(=O)[C@H](CC(C)C)NC(=O)[C@@H](NC(=O)[C@H](CC(=O)O)NC(=O)[C@H](CC(=O)O)NC(=O)CN)CSSC[C@@H]2NC(=O)[C@@H]3CSSC[C@@H](C(=O)N[C@@H](CCCCN)C(=O)N[C@@H](Cc4ccc(O)cc4)C(=O)N[C@@H](CCC(N)=O)C(=O)N[C@@H](C)C(=O)N[C@@H](Cc4c[nH]c5ccccc45)C(=O)O)NC(=O)[C@H](Cc4c[nH]c5ccccc45)NC(=O)[C@H](CCC(N)=O)NC(=O)[C@H](CC(=O)O)NC(=O)[C@H](CCCCN)NC(=O)[C@H](CCCNC(=N)N)NC(=O)[C@H](CO)NC(=O)[C@H](CSSC[C@H](NC(=O)[C@H](CO)NC(=O)[C@H](CO)NC(=O)[C@H](Cc4ccccc4)NC1=O)C(=O)N[C@@H](CC(=O)O)C(=O)N1CCC[C@H]1C(=O)N[C@@H](CC(N)=O)C(=O)N[C@@H](CC(N)=O)C(=O)N[C@@H](CC(=O)O)C(=O)N[C@@H](CCCCN)C(=O)N3)NC(=O)[C@H](CCCCN)NC(=O)[C@H](CCCNC(=N)N)NC(=O)[C@H](CC(N)=O)NC(=O)[C@@H]1CCCN1C2=O [Peptide L34A] (H-GDDCLGMFSSCDPNNDKCCPNRKCSRKDQWCKYQAW-OH; disulfide 4-19, 11-24, 18-31)	> 1000	> 1000	–	–
CC(C)C[C@@H]1NC(=O)[C@@H](NC(=O)[C@H](CC(=O)O)NC(=O)[C@H](CC(=O)O)NC(=O)CN)CSSC[C@@H]2NC(=O)[C@@H]3CSSC[C@@H](C(=O)N[C@@H](CCCCN)C(=O)N[C@@H](Cc4ccc(O)cc4)C(=O)N[C@@H](CCC(N)=O)C(=O)N[C@@H](CC(C)C)C(=O)N[C@@H](Cc4c[nH]c5ccccc45)C(=O)O)NC(=O)[C@H](Cc4c[nH]c5ccccc45)NC(=O)[C@H](CCC(N)=O)NC(=O)[C@H](CC(=O)O)NC(=O)[C@H](CCCCN)NC(=O)[C@H](CCCNC(=N)N)NC(=O)[C@H](CO)NC(=O)[C@H](CSSC[C@H](NC(=O)[C@H](CO)NC(=O)[C@H](CO)NC(=O)[C@H](Cc4ccccc4)NC(=O)[C@H](C)NC(=O)CNC1=O)C(=O)N[C@@H](CC(=O)O)C(=O)N1CCC[C@H]1C(=O)N[C@@H](CC(N)=O)C(=O)N[C@@H](CC(N)=O)C(=O)N[C@@H](CC(=O)O)C(=O)N[C@@H](CCCCN)C(=O)N3)NC(=O)[C@H](CCCCN)NC(=O)[C@H](CCCNC(=N)N)NC(=O)[C@H](CC(N)=O)NC(=O)[C@@H]1CCCN1C2=O [Peptide M6A] (H-GDDCLGAFSSCDPNNDKCCPNRKCSRKDQWCKYQLW-OH; disulfide 4-19, 11-24, 18-31)	> 1000	> 1000	–	–
